Measured values reported in US4456614A, “3-Amino-1-[(1,4-benzodioxan)-2-yl-methoxy]-2-propanols, pharmaceutical compositions thereof, and their use as medicaments” (Pierre Fabre S.A., priority 1980, dated 1984).
Structures can show the parent of a compound that is named as a salt.

Tests used:
[1] = tested on: isolated atrium (rabbit right atrium); experiment: Effect on the frequency of spontaneous flutterings of the isolated atrium; details: for inhibition at 10 µg/mL: Oryctolagus cuniculus, 0.4 h, after 24 minutes, 1 mg (per 100 ml), read-out: Percentage of reduction of the frequency
Experimental: (c) Effect on the frequency of spontaneous flutterings of the isolated atrium. Method: Rabbit right atrium in survival in a Ringer-Locke's solution. The substances to be studied are introduced into the tank (at the rate of 0.5 and 1 mg per 100 ml) and remain in contact with the myocardial tissue for 24 minutes.

adrenergic receptors = experiment: Inhibitory property of the adrenergic receptors (isoprenaline tachycardia in dogs); type: in vivo
Excerpt: (2) Search for an inhibitory property of the adrenergic receptors
Method: Isoprenaline tachycardia in dogs. Simultaneous recording of the heart rate and of the arterial pressure.

toxicity to yohimbine = experiment: Anti-depressant properties (potentialization of yohimbine toxicity in mice); type: in vivo
Excerpt: Anti-depressant properties (W. J. LANG and S. GORSHORN Arch. Int. Pharmacodyn., 142, 457, 1963).

[2] = tested on: auricular tachycardia produced by aconitine; experiment: Auricular tachycardia produced by aconitine in dogs; type: in vivo; details: 5 mg/kg
Excerpt: (b) Influence on an auricular tachycardia produced by aconitine.
Method: (D. SCHERF--Proc. Soc. exp. Biol., 1947, 64, 233). A tachycardia is caused in dogs by intramural injection of aconitine in the right atrium near the sinusoidal node.
The rhythm is increased in proportions of 80 to 100%. The auriculo-ventricular tracks show normal permeability, the ventricles are driven at the same frequency.

Solubility in water = type: physicochemical
Urinary excretion = experiment: Diuretic effect in rats (Lipschitz); type: in vivo; details: 100 mg/kg orally
Excerpt: Diuretic effect (W. LIPSCHITZ J. Pharmacol. Exp. Ther., 79, 97, 1943) in rats.

toxicity of pentetrazole = experiment: Anticonvulsant property (pentetrazole toxicity in mice); type: in vivo; details: orally, 100 mg/kg, pentetrazole subcutaneously
Excerpt: Anticonvulsant property (G. CHEN and R. PORTMAN, A.M.A. Arch. Neurol. Psychiat., 68, 498, 1952).

[3] = tested on: ventricular tachycardia of digitalic origin; experiment: Ventricular tachycardia of digitalic origin (ouabain) in anesthetized dogs; type: in vivo; details: doses of 2 and 5 mg/kg
Excerpt: (a) Action with respect to ventricular tachycardia of digitalic origin (LUCHESI and HARDMAN--J. Pharmacol. exp. Ther., 1961, No. 132, pages 372 to 81).
Method: Creation of a stable ventricular tachycardia in ten dogs (anesthetized) by successive intravenous injections of ouabain.

isolated rabbit atrium = experiment: Activity on the electrosystolic entrainment of the isolated rabbit atrium; details: isolated rabbit right atrium, Ringer-Locke's solution
Experimental: (d) Activity on the electrosystolic entrainment of the isolated rabbit atrium (G. S. DAWES--Pharmacol. Rev., 4, 43-84, 1952).
Method: Rabbit right atrium in a Ringer-Locke's solution.
After determination of the threshold voltage for the entrainment of the muscle, the latter is subjected to frequencies which increase in successive steps until obtaining a maximum frequency for which the tissue is incapable of responding to the stimuli.
The product is added to the bath. Three electric entrainments are effected in the following 25 minutes. The experiment is then continued for one hour after the rinsing of the tank.

central nervous system = experiment: Potentialization of the barbiturate and chloralhydrate anesthesia in mice; type: in vivo; details: 100 mg/kg
Excerpt: Potentialization of the barbiturate and chloralhydrate anesthesia in mice.

cardiovascular system = experiment: Systemic effects in dogs; type: in vivo; details: 1, 2 and 5 mg/kg
Experimental: (3) Systemic effects in dogs
Doses used: 1, 2 and 5 mg/kg
left intraventricular pressure

Local anesthesia = Local anesthesia (test of J. Regnier); type: in vivo; details: 1% solution
Excerpt: Local anesthesia: test of J. Regnier--Doctoral Dissertation, Med., 203 pages, Bruilliard St Dizier, 1929.

Compound CCC1CN2CCC1CC2[C@@H](O)c1ccnc2ccc(OC)cc12 (stereo partly shown) [Dihydroquinidine, reference compound] has an inhibition at 10 µg/mL [1] of 35%.

With CC(C)(C)NCC(O)COCC1COc2ccccc2O1 (stereo not shown) [Example 1, 3-tertiobutylamino-1-[(1,4-benzodioxan)-2-ylmethoxy]-2-propanol maleate] the beta-blocking effect (adrenergic receptors; 5 mg/kg) was “substantial”, the cardioselectivity (adrenergic receptors; 5 mg/kg) was “cardioselectivity is noted” and the “reduction of isoprenaline tachycardia” value (adrenergic receptors; from 1 mg/kg intravenously) was “significantly reduces the isoprenaline tachycardia starting with a dose of 1 mg/kg intravenously”. For the same compound, the “potentialization of toxicity to yohimbine” value (toxicity to yohimbine) was “No potentialization of toxicity to yohimbine”, the “% reduction of auricular tachycardia” value [2] was 60% and the “effect on auricular tachycardia” value [2] was “reduces auricular tachycardia substantially and lastingly”. The “persistence of the effect after injection” value [2] was 30 min, the solubility (Solubility in water) was 100 mg/mL and the inhibition at 10 µg/mL [1] was 16%. The “chronotropic effect compared with dihydroquinidine” value ([1]; isolated rabbit right atrium, Ringer-Locke's solution) was “definitely a less negative chronotropic effect than dihydroquinidine”, the diuretic power (Urinary excretion) was “does not have any diuretic power” and the Urinary excretion (Urinary excretion; Control 28%) was 35%. The “protection from toxicity of pentetrazole” value (toxicity of pentetrazole) was “does not protect mice from toxicity of pentetrazole”, the “opposition of ectopic rhythm” value ([3]; ten dogs, ouabain) was “opposes ectopic rhythm in all the animals” and the period of activity ([3]; in 80% of the cases) was “more than 30 minutes”. The “functional refractory period of the isolated atrium” value (isolated rabbit atrium) was “extends the functional refractory period of the isolated atrium in the same way as dihydroquinidine”, the “Potentialization of the barbiturate and chloralhydrate anesthesia” value (central nervous system) was “nothing to report” and the “force of cardiac contraction” value (cardiovascular system) was “decreases the force of cardiac contraction”. For the same compound, the “impact on the cardiovascular system” value (cardiovascular system) was “little impact on the cardiovascular system”, the peripheral resistances (cardiovascular system) was “decreases the force of cardiac contraction and the peripheral resistances” and the “local anesthetic properties compared with Lidocaine” value (Local anesthesia) was “local anesthetic properties superior to Lidocaine”.
